Experimental data: patent US20180184654A1, “Pesticidal Compositions Comprising a Triazole Compound” (BASF Agro B.V., priority 2015, published 2018)

Columns and labels:
[1] = test system: Leptosphaeria nodorum; test: Microtest: activity against wheat leaf spots caused by Leptosphaeria nodorum (Leptno); format: cell-based; settings: MTP, 405 nm, 7 days after inoculation
Procedure: (§1) The active compounds were formulated separately as a stock solution having a concentration of 10000 ppm in dimethyl sulfoxide.
(§2) The stock solutions were mixed according to the ratio, pipetted onto a micro titer plate (MTP) and diluted with water to the stated concentrations. A spore suspension of Leptosphaeria nodorum in an aqueous biomalt or yeast-bactopeptone-glycerine solution was then added. The plates were placed in a water vapor-saturated chamber at a temperature of 18° C. Using an absorption photometer, the MTPs were measured at 405 nm 7 days after the inoculation.
(§3) The measured parameters were compared to the growth of the active compound-free control variant (100%) and the fungus-free and active compound-free blank value to determine the relative growth in % of the pathogens in the respective active compounds.
(§4) These percentages were converted into efficacies.
(§5) The expected efficacies of active compound mixtures were determined using Colby's formula [R. S. Colby, “Calculating synergistic and antagonistic responses of herbicide combinations”, Weeds 15, 20-22 (1967)] and compared with the observed efficacies.

[2] = test system: Septoria tritici; test: Microtest: activity against leaf blotch on wheat caused by Septoria tritici (Septtr); format: cell-based; settings: MTP, 405 nm, 7 days after inoculation
Procedure: as §1
as §2, with “Septoria tritici” for “Leptosphaeria nodorum”
as §3, §4, §5

Row | SMILES | Observed efficacy ([1]; single compound at 0.016 ppm) | Observed efficacy ([2]; single compound at 0.001 ppm) | Observed efficacy ([1]; single compound at 63 ppm) | Observed efficacy ([2]; single compound at 4 ppm) | Observed efficacy ([2]; single compound at 16 ppm)
1 | CC(O)(Cn1cncn1)c1ccc(Oc2ccc(Cl)cc2)cc1C(F)(F)F (stereo not shown) [I-3, 2-[4-(4-chlorophenoxy)-2-(trifluoromethyl)phenyl]-1-(1,2,4-triazol-1-yl)propan-2-ol] | 23% | 6% | – | – | –
2 | CCN(C(=O)c1cnn(C(C)C(C)C)c1C)c1ccnnc1 (stereo not shown) [II-2, 1-(1,2-dimethylpropyl)-N-ethyl-5-methyl-N-pyridazin-4-yl-pyrazole-4-carboxamide] | – | – | 7% | 7% | –
3 | CCN(C(=O)c1cnn(C(C)C2(C#N)CC2)c1C)c1ccnnc1 (stereo not shown) [II-4, 1-[1-(1-cyanocyclopropyl)ethyl]-N-ethyl-5-methyl-N-pyridazin-4-yl-pyrazole-4-carboxamide] | – | – | 2% | – | –
4 | CCN(C(=O)c1cnn(C(C)C(C)F)c1C)c1ccnnc1 (stereo not shown) [II-5, N-ethyl-1-(2-fluoro-1-methyl-propyl)-5-methyl-N-pyridazin-4-yl-pyrazole-4-carboxamide] | – | – | 12% | – | 9%
